From US12391737B2, “Soluble NPY2 receptor agonists” (Boehringer Ingelheim International GmbH, priority 2020, dated 2025)
*1 amine or outer side, *2 acyl side, *3 side chain or, on linkers, in order; H or OH if unused. Where a SMILES comes first, the peptide text is derived from it. Side-chain parts run from the residue outwards. The star is where a group is joined. C18 diacid = O=C(O)CCCCCCCCCCCCCCCCC(=O)*; γGlu = O=C(O)[C@H](CCC(=O)[*:2])N[*:1]; Isovaleryl = CC(C)CC(=O)*; Ahx = NCCCCCC(=O)O

What was measured:
Solubility determination = conditions: for Sol6: pH 6; for Sol7: pH 7
Method in brief: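 First, TFA-salt peptide was added to 0.1 M sodium diphosphate (pH 6.4 or 7.0) to 10 mg/ml and shaken 2 h at room temperature. Next, insoluble material was filtered off. Finally, filtrate and control, each 1 mg/ml in 50% acetonitrile, were compared by reversed-phase chromatography.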

[1] = biological target: T1, Human Neuropeptide Y2 Receptor (Homo sapiens, UniProt P49146); test: Radioligand binding competition assay (RLB); conditions: Table 3, 125I-PYY(1-36) competition; read-out: Ki
T1 construct: purchased CHEMICON HTS066M
T1 sequence (P49146 1-381): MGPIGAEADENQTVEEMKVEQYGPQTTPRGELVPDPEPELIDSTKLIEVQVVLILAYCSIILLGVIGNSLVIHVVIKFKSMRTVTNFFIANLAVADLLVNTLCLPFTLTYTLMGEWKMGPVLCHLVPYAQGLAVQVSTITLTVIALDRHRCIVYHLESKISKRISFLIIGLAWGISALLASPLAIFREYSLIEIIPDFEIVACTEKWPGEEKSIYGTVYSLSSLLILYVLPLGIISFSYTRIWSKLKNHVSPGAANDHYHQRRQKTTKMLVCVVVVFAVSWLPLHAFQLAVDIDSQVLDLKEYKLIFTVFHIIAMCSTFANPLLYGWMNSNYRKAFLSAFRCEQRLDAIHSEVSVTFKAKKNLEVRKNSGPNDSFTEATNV
Experimental: The filtration RLB assay was carried out in 96-well plates in a final volume of 100 μl per well. Freeze-dried test peptides were dissolved in 100% dimethyl sulfoxide (DMSO) to stock solutions of 1 mM and serial dilutions were performed in assay buffer (50 mM HEPES, 5 mM MgCl2, 1 mM CaCl2, pH 7.4) containing 0.2% ovalbumin. […] Next, 80 μL membranes (HTS066M, ChemiSCREEN™ Human Neuropeptide Y2 Receptor Membrane Preparation, CHEMICON) were added to each well to give a final protein concentration of 0.5 μg/well. The plates were sealed and incubated at room temperature for 2 hours in a plate shaker set at 400 rpm. The incubation was stopped by vacuum filtration onto 0.5% polyethylene amine (PE) presoaked GF/C filters using a 96-well FilterMate™ harvester (Perkin Elmer) followed by four washes with 300 μl/well ice-cold wash buffer (50 mM HEPES, 500 mM NaCl, pH7.4). Filter plates were then dried for 60 min at room temperature and the bottom of the plates was sealed with backing tape UniFilter-96. Finally, 50 μl/well scintillation counter cocktail (Microscint20, Packard) was added and the radioactivity was counted in the Packard TopCount NXT scintillation counter. IC50 values (the half maximal inhibitory concentration of the agonist) were calculated by nonlinear regression analysis of sigmoidal dose-response curves.

CC(C)CC(=O)N[C@@H](C)C(=O)N1CCC[C@H]1C(=O)N[C@@H](CCC(=O)O)C(=O)N[C@@H](CCCCNC(=O)CCCCCNC(=O)CC[C@H](NC(=O)CCCCCCCCCCCCCCCCC(=O)O)C(=O)O)C(=O)N1CCC[C@H]1C(=O)N[C@@H](CCC(=O)O)C(=O)N[C@@H](CCC(=O)O)C(=O)N[C@@H](CC(=O)O)C(=O)N[C@@H](C)C(=O)N[C@H](C(=O)N[C@@H](CCC(=O)O)C(=O)N[C@@H](CCC(=O)O)C(=O)N[C@@H](CCC(=O)O)C(=O)N[C@@H](CC(C)C)C(=O)N[C@@H](CCC(N)=O)C(=O)N[C@@H](CCCNC(=N)N)C(=O)N[C@@H](Cc1ccc(O)cc1)C(=O)N[C@@H](Cc1ccc(O)cc1)C(=O)N[C@H](C(=O)N[C@@H](CO)C(=O)N[C@@H](CC(C)C)C(=O)N[C@@H](CCCNC(=N)N)C(=O)N[C@@H](Cc1c[nH]cn1)C(=O)N[C@@H](Cc1ccc(O)cc1)C(=O)N[C@@H](Cc1ccc(O)cc1)C(=O)N[C@@H](CC(N)=O)C(=O)N[C@@H](Cc1c[nH]c2ccccc12)C(=O)N[C@@H](CC(C)C)C(=O)N[C@H](C(=O)N[C@@H](CCCNC(=N)N)C(=O)N[C@@H](CCC(N)=O)C(=O)N[C@@H](CCCNC(=N)N)C(=O)N[C@@H](Cc1ccc(O)cc1)C(N)=O)[C@@H](C)O)C(C)C)[C@@H](C)O [Compound 19, N{alpha-4}-(3-methylbutanoyl)-N{epsilon-7}-(6-[(4S)-4-carboxy-4-(17-carboxyheptadecanamido)butanamido]hexanoyl)[4A,7K,9E,13T,14E,18Q,22V,28Y,30W,31L]-hPYY(4-36)]
Sol6 (Solubility determination): 10.0 mg/mL | Sol7 (Solubility determination): 9.2 mg/mL | Ki [1]: 9.63 nM

CC(C)CC(=O)N[C@@H](C)C(=O)N1CCC[C@H]1C(=O)N[C@@H](C)C(=O)N[C@@H](CCCCNC(=O)CCCCCNC(=O)CC[C@H](NC(=O)CCCCCCCCCCCCCCCCC(=O)O)C(=O)O)C(=O)N1CCC[C@H]1C(=O)N[C@@H](CCC(=O)O)C(=O)N[C@@H](CCC(=O)O)C(=O)N[C@@H](CC(=O)O)C(=O)N[C@@H](C)C(=O)N[C@@H](CO)C(=O)N1CCC[C@H]1C(=O)N[C@@H](CCC(=O)O)C(=O)N[C@@H](CCC(=O)O)C(=O)N[C@@H](CC(C)C)C(=O)N[C@@H](CCC(N)=O)C(=O)N[C@@H](CCCNC(=N)N)C(=O)N[C@@H](Cc1ccc(O)cc1)C(=O)N[C@@H](CCC(N)=O)C(=O)N[C@H](C(=O)N[C@@H](CO)C(=O)N[C@@H](CC(C)C)C(=O)N[C@@H](CCCNC(=N)N)C(=O)N[C@@H](Cc1c[nH]cn1)C(=O)N[C@@H](Cc1ccc(O)cc1)C(=O)N[C@@H](Cc1ccc(O)cc1)C(=O)N[C@@H](CC(N)=O)C(=O)N[C@@H](Cc1c[nH]c2ccccc12)C(=O)N[C@@H](CC(C)C)C(=O)N[C@H](C(=O)N[C@@H](CCCNC(=N)N)C(=O)N[C@@H](CCC(N)=O)C(=O)N[C@@H](CCCNC(=N)N)C(=O)N[C@@H](Cc1ccc(O)cc1)C(N)=O)[C@@H](C)O)C(C)C [Compound 20, N{alpha-4}-(3-methylbutanoyl)-N{epsilon-7}-(6-[(4S)-4-carboxy-4-(17-carboxyheptadecanamido)butanamido]hexanoyl)[4A,6A,7K,9E,18Q,21Q,22V,28Y,30W,31L]-hPYY(4-36)]
Sol6 (Solubility determination): >10.0 mg/mL | Sol7 (Solubility determination): 10.0 mg/mL | Ki [1]: 2.41 nM

CC(C)CC(=O)N[C@@H](C)C(=O)N1CCC[C@H]1C(=O)N[C@@H](CCC(=O)O)C(=O)N[C@@H](CCCCNC(=O)CCCCCNC(=O)CC[C@H](NC(=O)CCCCCCCCCCCCCCCCC(=O)O)C(=O)O)C(=O)N1CCC[C@H]1C(=O)N[C@@H](CCC(=O)O)C(=O)N[C@@H](CCC(=O)O)C(=O)N[C@@H](CC(=O)O)C(=O)N1CCC[C@H]1C(=O)N[C@H](C(=O)N1CCC[C@H]1C(=O)N[C@@H](CCC(=O)O)C(=O)N[C@@H](CCC(=O)O)C(=O)N[C@@H](CC(C)C)C(=O)N[C@@H](CCC(N)=O)C(=O)N[C@@H](CCCNC(=N)N)C(=O)N[C@@H](Cc1ccc(O)cc1)C(=O)N[C@@H](Cc1ccc(O)cc1)C(=O)N[C@H](C(=O)N[C@@H](CO)C(=O)N[C@@H](CC(C)C)C(=O)N[C@@H](CCCNC(=N)N)C(=O)N[C@@H](Cc1c[nH]cn1)C(=O)N[C@@H](Cc1ccc(O)cc1)C(=O)N[C@@H](Cc1ccc(O)cc1)C(=O)N[C@@H](CC(N)=O)C(=O)N[C@@H](Cc1c[nH]c2ccccc12)C(=O)N[C@@H](CC(C)C)C(=O)N[C@H](C(=O)N[C@@H](CCCNC(=N)N)C(=O)N[C@@H](CCC(N)=O)C(=O)N[C@@H](CCCNC(=N)N)C(=O)N[C@@H](Cc1ccc(O)cc1)C(N)=O)[C@@H](C)O)C(C)C)[C@@H](C)O [Compound 22, N{alpha-4}-(3-methylbutanoyl)-N{epsilon-7}-(6-[(4S)-4-carboxy-4-(17-carboxyheptadecanamido)butanamido]hexanoyl)[4A,7K,9E,12P,13T,18Q,22V,28Y,30W,31L]-hPYY(4-36)]
Sol6 (Solubility determination): 9.7 mg/mL | Sol7 (Solubility determination): 9.8 mg/mL | Ki [1]: 4.98 nM

CC(C)CC(=O)N[C@@H](C)C(=O)N1CCC[C@H]1C(=O)N[C@@H](CCC(=O)O)C(=O)N[C@@H](CCCCNC(=O)CCCCCNC(=O)CC[C@H](NC(=O)CCCCCCCCCCCCCCCCC(=O)O)C(=O)O)C(=O)N1CCC[C@H]1C(=O)N[C@@H](CCC(=O)O)C(=O)N[C@@H](CCC(=O)O)C(=O)N[C@@H](CC(=O)O)C(=O)N[C@@H](CO)C(=O)N[C@@H](CO)C(=O)N1CCC[C@H]1C(=O)N[C@@H](CCC(=O)O)C(=O)N[C@@H](CCC(=O)O)C(=O)N[C@@H](CC(C)C)C(=O)N[C@@H](CCC(N)=O)C(=O)N[C@@H](CCCNC(=N)N)C(=O)N[C@@H](Cc1ccc(O)cc1)C(=O)N[C@@H](Cc1ccc(O)cc1)C(=O)N[C@H](C(=O)N[C@@H](C)C(=O)N[C@@H](CC(C)C)C(=O)N[C@@H](CCCNC(=N)N)C(=O)N[C@@H](Cc1c[nH]cn1)C(=O)N[C@@H](Cc1ccc(O)cc1)C(=O)N[C@@H](Cc1ccc(O)cc1)C(=O)N[C@@H](CC(N)=O)C(=O)N[C@@H](Cc1c[nH]c2ccccc12)C(=O)N[C@@H](CC(C)C)C(=O)N[C@H](C(=O)N[C@@H](CCCNC(=N)N)C(=O)N[C@@H](CCC(N)=O)C(=O)N[C@@H](CCCNC(=N)N)C(=O)N[C@@H](Cc1ccc(O)cc1)C(N)=O)[C@@H](C)O)C(C)C [Compound 24, N{alpha-4}-(3-methylbutanoyl)-N{epsilon-7}-(6-[(4S)-4-carboxy-4-(17-carboxyheptadecanamido)butanamido]hexanoyl)[4A,7K,9E,12S,18Q,22V,23A,28Y,30W,31L]-hPYY(4-36)]
Sol6 (Solubility determination): 9.8 mg/mL | Sol7 (Solubility determination): 10.0 mg/mL | Ki [1]: 3.39 nM

CC[C@H](C)[C@H](NC(=O)[C@H](Cc1ccc(O)cc1)NC(=O)[C@H](Cc1ccc(O)cc1)NC(=O)[C@H](CCCNC(=N)N)NC(=O)[C@H](CCC(N)=O)NC(=O)[C@H](CC(C)C)NC(=O)[C@H](CCC(=O)O)NC(=O)[C@H](CCC(=O)O)NC(=O)[C@@H]1CCCN1C(=O)[C@@H](NC(=O)[C@H](C)NC(=O)[C@H](CC(=O)O)NC(=O)[C@H](C)NC(=O)[C@H](CCC(=O)O)NC(=O)[C@@H]1CCCN1C(=O)[C@H](CCCCNC(=O)CCCCCNC(=O)CC[C@H](NC(=O)CCCCCCCCCCCCCCCCC(=O)O)C(=O)O)NC(=O)[C@H](CCC(=O)O)NC(=O)[C@@H]1CCCN1C(=O)[C@H](C)NC(=O)CC(C)C)[C@@H](C)O)C(=O)N[C@@H](CO)C(=O)N[C@@H](CC(C)C)C(=O)N[C@@H](CCCNC(=N)N)C(=O)N[C@@H](Cc1c[nH]cn1)C(=O)N[C@@H](Cc1ccc(O)cc1)C(=O)N[C@@H](Cc1ccc(O)cc1)C(=O)N[C@@H](CC(N)=O)C(=O)N[C@@H](Cc1c[nH]c2ccccc12)C(=O)N[C@@H](CC(C)C)C(=O)N[C@H](C(=O)N[C@@H](CCCNC(=N)N)C(=O)N[C@@H](CCC(N)=O)C(=O)N[C@@H](CCCNC(=N)N)C(=O)N[C@@H](Cc1ccc(O)cc1)C(N)=O)[C@@H](C)O [Compound 25, N{alpha-4}-(3-methylbutanoyl)-N{epsilon-7}-(6-[(4S)-4-carboxy-4-(17-carboxyheptadecanamido)butanamido]hexanoyl)[4A,7K,9E,10A,13T,18Q,22I,28Y,30W,31L]-hPYY(4-36)] (Isovaleryl-APEK([Ahx-γGlu-C18 diacid])PEADATPEELQRYYISLRHYYNWLTRQRY-NH2)
Sol6 (Solubility determination): 9.3 mg/mL | Sol7 (Solubility determination): 9.3 mg/mL | Ki [1]: 1.55 nM
